Test results reported in patent publication US11246931B2, “Active pharmaceutical ingredient carrier and production method of the same” (Tokuyama Corporation, priority 2017, dated 2022).

Test: Elution test, paddle method of the Japanese Pharmacopoeia (elution rate by HPLC)
Assay type: physicochemical
Conditions: 37±0.5° C., 75 rpm; for Elution rate (%) 10 min: 10 min after addition; for Elution rate (%) 60 min: 60 min after addition; for Elution rate (%) 120 min: 120 min after addition
Experimental: The elution test was performed according to the paddle method in the Japanese Pharmacopoeia the 17th edition. Specifically, the test solution was set to 900 mL of the elution test solution No. 1 of the Japanese Pharmacopoeia, the temperature was set to 37±0.5° C., the rotation speed was set to 75 rpm, the sample to be tested was loaded, and then about 1 mL was sampled at regular intervals, filtered through a syringe filter, and then subjected to HPLC analysis to determine the peak area of the active pharmaceutical ingredient. The obtained area was compared to the peak area of the active pharmaceutical ingredient at the elution rate of 100% to calculate the elution rate (%).
The elution rate is a value obtained by performing HPLC analysis with 200 mg of an IBP crystal all dissolved in 900 mL of the test solution, taking the obtained area as the elution rate of 100%, adding the active pharmaceutical ingredient or the active pharmaceutical ingredient carrier to the eluate, then performing sampling overtime, performing filtering and HPLC analysis to calculate the area, and comparing the area to the value of the elution rate of 100%.
An active pharmaceutical ingredient carrier (corresponding to 200 mg of an active pharmaceutical ingredient) (0.66 g) was weighed, and subjected to the elution test according to the paddle method in the Japanese Pharmacopoeia elution test method using the elution test solution No. 1 (pH 1.2). The temperature of the test solution was 37±0.5° C., and the rotation speed was 75 rpm. Sampling was performed at 5 minutes, 10 minutes, 15 minutes, 30 minutes, and then once every 15 minutes until 120 minutes after addition of the active pharmaceutical ingredient carrier, the obtained sample was immediately filtered using a syringe filter, and the elution rate (%) was calculated as described above from the peak area of the active pharmaceutical ingredient by high performance liquid chromatography (HPLC) with a UV detector.
The elution test of an IBP crystal was performed in the same manner as described above except that an ibuprofen active pharmaceutical ingredient (IBP crystals) was used instead of the active pharmaceutical ingredient carrier.
In the same manner as in the elution test, the elution test of the obtained active pharmaceutical ingredient carrier or the ezetimibe active ingredient (an ETB crystal) was performed. This test was performed using the elution test solution No. 1 (pH 1.2) same as that described above and the elution test solution No. 2 (pH 6.8).
In the same manner as described above, the elution test of the obtained active pharmaceutical ingredient carrier or the celecoxib active ingredient (a CXB crystal) was performed using the elution test solution No. 1 (pH 1.2) or the elution test solution No. 2 (pH 6.8).
In the same manner as described above, the elution test of the obtained active pharmaceutical ingredient carrier or the azilsartan active ingredient (an AZL crystal) was performed using the elution test solution No. 1 (pH 1.2).

[1] = elution test solution No. 1 (pH 1.2), 900 mL
[2] = elution test solution No. 2 (pH 6.8)

With CC(C)Cc1ccc(C(C)C(=O)O)cc1 (stereo not drawn) [IBP crystal, ibuprofen] the “Elution rate (%) 10 min” value [1] was 1.1%, the “Elution rate (%) 60 min” value [1] was 6.0% and the “Elution rate (%) 120 min” value [1] was 10.1%.

With O=C1[C@H](CC[C@H](O)c2ccc(F)cc2)[C@@H](c2ccc(O)cc2)N1c1ccc(F)cc1 [ETB crystal, ezetimibe] the “Elution rate (%) 10 min” value [1] was 6.1%, the “Elution rate (%) 60 min” value [1] was 8.4% and the “Elution rate (%) 120 min” value [1] was 8.4%. For the same compound, the “Elution rate (%) 10 min” value [2] was 6.6%, the “Elution rate (%) 60 min” value [2] was 8.3% and the “Elution rate (%) 120 min” value [2] was 8.2%.

With CCOc1nc2cccc(C(=O)O)c2n1Cc1ccc(-c2ccccc2-c2nc(=O)o[nH]2)cc1 [AZL crystal, azilsartan] the “Elution rate (%) 10 min” value [1] was 0.58%, the “Elution rate (%) 60 min” value [1] was 4.7% and the “Elution rate (%) 120 min” value [1] was 7.4%.
